Assay results: PubChem BioAssay AID330 (DTP/NCI, 2004)
“And” between values parts separate entries of the source, which are not always exact repeats. Identical values can stand only once. Toxic doses and inconclusive results are not listed. How the source made its calls: active means survival T/C of 150% or more; inactive means T/C below 125% in these data.

Test system: P388 leukemia ip, CD2F1 mice, survival T/C
Assay: NCI In Vivo Anticancer Drug Screen. Data for tumor model P388 Leukemia (intraperitoneal) in CD2F1 (CDF1) mice
Settings: endpoint: median survival time, higher = longer survival
Procedure, shortened: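 Mice carrying the transplanted tumor received test compound or vehicle. Survival was recorded in each group, and the value is the treated-group measurement divided by that of the vehicle-treated control group.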

[1] = dose: 60.0 mg/kg/injection, schedule: Q01DX005 (ip), vehicle: saline with Tween-80
[2] = dose: 120.0 mg/kg/injection, schedule: Q01DX005 (ip), vehicle: saline with Tween-80
[3] = dose: 240.0 mg/kg/injection, schedule: Q01DX005 (ip), vehicle: saline with Tween-80
[4] = dose: 50.0 mg/kg/injection, schedule: Q04DX003 (ip), vehicle: saline with Tween-80
[5] = dose: 100.0 mg/kg/injection, schedule: Q04DX003 (ip), vehicle: saline with Tween-80
[6] = dose: 50.0 mg/kg/injection, schedule: Q01DX009 (ip), vehicle: Klucel (hydroxypropylcellulose) (HPC)
[7] = dose: 100.0 mg/kg/injection, schedule: Q01DX009 (ip), vehicle: Klucel (hydroxypropylcellulose) (HPC)
[8] = dose: 200.0 mg/kg/injection, schedule: Q01DX009 (ip), vehicle: Klucel (hydroxypropylcellulose) (HPC)
[9] = dose: 50.0 mg/kg/injection, schedule: Q01DX009 (ip), vehicle: saline with Tween-80
[10] = dose: 100.0 mg/kg/injection, schedule: Q01DX009 (ip), vehicle: saline with Tween-80
[11] = dose: 200.0 mg/kg/injection, schedule: Q01DX009 (ip), vehicle: saline with Tween-80
[12] = dose: 60.0 mg/kg/injection, schedule: Q01DX005 (ip), vehicle: saline
[13] = dose: 120.0 mg/kg/injection, schedule: Q01DX005 (ip), vehicle: saline
[14] = dose: 50.0 mg/kg/injection, schedule: Q01DX005 (ip), vehicle: saline with Tween-80
[15] = dose: 100.0 mg/kg/injection, schedule: Q01DX005 (ip), vehicle: saline with Tween-80
[16] = dose: 200.0 mg/kg/injection, schedule: Q01DX005 (ip), vehicle: saline with Tween-80

Measured: T/C

CCOC(=O)C(=CNc1cc(C)c2[nH]c3ccc(Cl)cc3c2c1C)C(=O)OCC
inactive: [1] 92 % of control | [2] 93 % of control | [3] 86 % of control and 94 % of control

Cc1coc2c1C[C@@]1(C)[C@H](C2)C(=O)CC[C@@H]1C
inactive: dose: 37.5 mg/kg/injection, schedule: Q01DX009 (ip), vehicle: Klucel (hydroxypropylcellulose) (HPC) 105 % of control

CCCCCc1cc(O)c2c(c1)OC(C)(C)[C@@H]1CCC(C)=C[C@@H]21
inactive: dose: 1.0 mg/kg/injection, schedule: Q01DX005 (iv), vehicle: other 100 % of control | dose: 1.5 mg/kg/injection, schedule: Q02HX016 (oral), vehicle: olive oil, sesame oil, peanut oil 92 % of control | dose: 2.0 mg/kg/injection, schedule: Q01DX005 (iv), vehicle: other 100 % of control | dose: 3.0 mg/kg/injection, schedule: Q02HX016 (oral), vehicle: olive oil, sesame oil, peanut oil 92 % of control | dose: 4.0 mg/kg/injection, schedule: Q01DX005 (iv), vehicle: other 100 % of control | dose: 8.0 mg/kg/injection, schedule: Q01DX005 (iv), vehicle: other 92 % of control | dose: 16.0 mg/kg/injection, schedule: Q01DX005 (iv), vehicle: other 100 % of control | dose: 32.0 mg/kg/injection, schedule: Q01DX005 (iv), vehicle: other 109 % of control and 96 % of control | dose: 64.0 mg/kg/injection, schedule: Q01DX005 (iv), vehicle: other 99 % of control and 100 % of control | dose: 128.0 mg/kg/injection, schedule: Q01DX005 (iv), vehicle: other 99 % of control | dose: 256.0 mg/kg/injection, schedule: Q01DX005 (iv), vehicle: other 99 % of control

CC(C)CNC1=CC(=O)c2ccccc2C1=O
inactive: [4] 106 % of control | [5] 108 % of control | dose: 200.0 mg/kg/injection, schedule: Q04DX003 (ip), vehicle: saline with Tween-80 92 % of control

OC(Cc1cnc2ccccc2c1)(c1ccccc1)c1ccccc1
inactive: dose: 50.0 mg/kg/injection, schedule: Q04DX002 (ip), vehicle: saline with Tween-80 111 % of control | dose: 100.0 mg/kg/injection, schedule: Q04DX002 (ip), vehicle: saline with Tween-80 96 % of control | dose: 200.0 mg/kg/injection, schedule: Q04DX002 (ip), vehicle: saline with Tween-80 88 % of control

CCC[CH2][Sn]([CH2]CCC)([O][P+](=O)C[Si](C)(C)c1ccccc1)[O][P+](=O)C[Si](C)(C)c1ccccc1 (configuration not stated)
inactive: [1] 108 % of control | [2] 115 % of control | [3] 122 % of control

COc1ccc(C(O)C2CCCN(c3ccccc3)S2(=O)=O)cc1 (configuration not stated)
inactive: dose: 100.0 mg/kg/injection, schedule: Q01DX001 (ip), vehicle: saline with Tween-80 101 % of control | dose: 200.0 mg/kg/injection, schedule: Q01DX001 (ip), vehicle: saline with Tween-80 94 % of control | dose: 400.0 mg/kg/injection, schedule: Q01DX001 (ip), vehicle: saline with Tween-80 98 % of control

O=C1C(=C2C=CN(CCCN3CCCCC3)C=C2)C(=O)c2ccccc21
inactive: [6] 91 % of control | [7] 102 % of control | [8] 102 % of control

Clc1ccc2nsnc2c1
inactive: dose: 6.25 mg/kg/injection, schedule: Q01DX009 (ip), vehicle: saline with Tween-80 101 % of control | dose: 12.5 mg/kg/injection, schedule: Q01DX009 (ip), vehicle: saline with Tween-80 95 % of control | dose: 25.0 mg/kg/injection, schedule: Q01DX009 (ip), vehicle: saline with Tween-80 95 % of control | [6] 101 % of control | [9] 104 % of control | [7] 107 % of control | [10] 104 % of control | [8] 108 % of control | [11] 95 % of control

CN(C)CCCN1c2ccccc2CCc2ccccc21
inactive: [1] 115 % of control | [2] 109 % of control

CCOC(=O)N1C=CC2(C=C1)CCCCC2
inactive: dose: 25.0 mg/kg/injection, schedule: Q04DX003 (ip), vehicle: Klucel (hydroxypropylcellulose) (HPC) 101 % of control | dose: 50.0 mg/kg/injection, schedule: Q04DX003 (ip), vehicle: Klucel (hydroxypropylcellulose) (HPC) 106 % of control

CCOC(OCC)c1ccc(-n2c(N)c(C#N)cnc2=S)c2c1OC2=NC=C(C#N)C#N
inactive: dose: 50.0 mg/kg/injection, schedule: Q01DX009 (ip), vehicle: saline 112 % of control | dose: 100.0 mg/kg/injection, schedule: Q01DX009 (ip), vehicle: saline 102 % of control | dose: 200.0 mg/kg/injection, schedule: Q01DX009 (ip), vehicle: saline 100 % of control

COC1/C=C/OC2(C)Oc3c(C)c(O)c4c(O)c(c(C5SCCS5)c(O)c4c3C2=O)NC(=O)/C(C)=C\C=C\C(C)C(O)C(C)C(O)C(C)C(O)C1C (configuration not stated)
inactive: [9] 97 % of control | [10] 102 % of control | [11] 96 % of control

Cc1nc(C)c(Cl)c(OS(=O)(=O)CCCCl)c1Cl
inactive: dose: 25.0 mg/kg/injection, schedule: Q01DX009 (ip), vehicle: Klucel (hydroxypropylcellulose) (HPC) 110 % of control (2×) and 92 % of control | dose: 35.0 mg/kg/injection, schedule: Q01DX009 (ip), vehicle: Klucel (hydroxypropylcellulose) (HPC) 110 % of control and 95 % of control | [6] 105 % of control and 120 % of control and 95 % of control | dose: 75.0 mg/kg/injection, schedule: Q01DX009 (ip), vehicle: Klucel (hydroxypropylcellulose) (HPC) 94 % of control

CCN(CC)CCNC(c1ccc(OC)cc1)C(Cl)(Cl)Cl (configuration not stated)
inactive: [12] 94 % of control | [13] 94 % of control

CN(N=O)C1=NC(C)(CCl)P(=O)(NNc2ncccn2)O1 (configuration not stated)
inactive: [12] 108 % of control | [13] 110 % of control

O=C(CCl)N1c2ccc3ccccc3c2Sc2ccc3ccccc3c21
inactive: dose: 6.25 mg/kg/injection, schedule: Q01DX005 (ip), vehicle: saline with Tween-80 96 % of control | dose: 12.5 mg/kg/injection, schedule: Q01DX005 (ip), vehicle: saline with Tween-80 101 % of control | dose: 25.0 mg/kg/injection, schedule: Q01DX005 (ip), vehicle: saline with Tween-80 95 % of control | [14] 98 % of control | [15] 97 % of control | [16] 105 % of control

O=C(c1ccccc1)C(C(=O)c1ccccc1)C(c1ccccc1)(c1ccccc1)c1ccccc1
inactive: dose: 12.5 mg/kg/injection, schedule: Q04DX003 (ip), vehicle: saline with Tween-80 97 % of control | dose: 25.0 mg/kg/injection, schedule: Q04DX003 (ip), vehicle: saline with Tween-80 99 % of control and 98 % of control | [4] 87 % of control | [5] 90 % of control and 91 % of control | dose: 400.0 mg/kg/injection, schedule: Q04DX003 (ip), vehicle: saline with Tween-80 88 % of control

COc1ccc2c(c1)CN(Cc1ccccc1)CO2
inactive: [1] 104 % of control | [2] 105 % of control | [3] 102 % of control

O=C(c1ccccc1)C(C(=O)c1ccccc1)S(=O)(=O)c1ccccc1
inactive: [14] 93 % of control | [15] 93 % of control | [16] 91 % of control

[CH3][Sn]([CH3])([S]c1nc(O)cc(=O)[nH]1)[S]c1nc(O)cc(=O)[nH]1
inactive: dose: 12.5 mg/kg/injection, schedule: Q01DX005 (ip), vehicle: Klucel (hydroxypropylcellulose) (HPC) 105 % of control and 108 % of control | dose: 25.0 mg/kg/injection, schedule: Q01DX005 (ip), vehicle: Klucel (hydroxypropylcellulose) (HPC) 96 % of control | dose: 50.0 mg/kg/injection, schedule: Q01DX005 (ip), vehicle: Klucel (hydroxypropylcellulose) (HPC) 117 % of control and 88 % of control and 89 % of control
